Measurements: ChEMBL document CHEMBL5226298, “Chemoenzymatic Synthesis of 5-Methylpsilocybin: A Tryptamine with Potential Psychedelic Activity” (2021)

Tests used:
[1] = test system: Mus musculus; assay: Induction of psychedelics activity in mouse assessed as head-twitch response at upto 10 mg/kg, ip measured for 30 min; format: functional; settings: 0.5 h
[2] = test system: Mus musculus; assay: Induction of psychedelics activity in C57BL/6J mouse assessed as head-twitch response at upto 10 mg/kg, ip measured for 30 min; format: functional; settings: 0.5 h

Row | Compound | ED50 [1] [mg/kg] | ED50 [2] [µmol/kg]
1 | Cc1ccc2[nH]cc(CCN(C)C)c2c1OP(=O)(O)O | 1.23 | –
2 | CN(C)CCc1c[nH]c2ccccc12 [N,N-DIMETHYLTRYPTAMINE] | – | 5.05
